Assay results from patent US20120308570A1, “METHODS FOR TREATING DISEASES” (priority 2009, published 2012).

Key:
iNOS/SSB-2 interaction = biological target: T1, iNOS/SSB-2 interaction (Mus musculus, UniProt O88838); assay: Peptide competition assay (anti-Flag immunoprecipitation, anti-iNOS Western blot); format: binding
T1 construct: cDNA clones covering the entire coding region of murine SSB-1 to −4 were isolated; expressed in transfected cells; host or cells: 293T cells (Flag-SSB-2); C57BL/6 BMDM lysate (iNOS)
T1 sequence (O88838 1-264): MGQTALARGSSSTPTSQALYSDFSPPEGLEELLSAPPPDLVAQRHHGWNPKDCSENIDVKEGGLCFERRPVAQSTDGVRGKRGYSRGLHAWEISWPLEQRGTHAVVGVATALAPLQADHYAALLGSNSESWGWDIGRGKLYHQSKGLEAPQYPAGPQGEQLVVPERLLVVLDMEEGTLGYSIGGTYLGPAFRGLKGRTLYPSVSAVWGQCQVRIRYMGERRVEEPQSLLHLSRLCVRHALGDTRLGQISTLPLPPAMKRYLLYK
Procedure: 293T cells were transfected with vector alone or a construct expressing FLAG-tagged SSB-2 and lysed as described above. iNOS peptide (SEQ ID NO:3) was added in increasing concentrations (0.001, 0.01, 0.1, 1.0 and 10 μM) to iNOS-expressing lysate generated from C57BL/6 BMDM stimulated with LPS/IFNγ. 293T lysates were then added to the macrophage/iNOS peptide lysates and incubated for 1 h at 4° C. Anti-Flag antibody coupled to Sepharose beads (M2, Sigma) was added to the lysate mix and incubated for 3 h at 4° C. Complexes were then separated by SDS-PAGE and analysed by Western blot with anti-iNOS antibodies.
Given that there are a number of disease states where elevated or prolonged iNOS expression might be beneficial, the present inventors were interested in whether the iNOS/SSB-2 interaction could be disrupted. As a simple proof-of-concept experiment, free iNOS peptide was used to competitively disrupt the interaction. 293T cells were transiently transfected with cDNA expressing Flag-tagged SSB-2, lysed and mixed with iNOS-expressing macrophage lysates which contained increasing amounts of free iNOS peptide.

Y120A-SSB-2ΔSB = biological target: T2, Y120A-SSB-2ΔSB (Mus musculus, UniProt O88838, Y120A); assay: ITC of Y120A mutant SSB-2 SPRY domain with iNOS peptide; format: binding; conditions: versus SSB-2ΔSB
T2 construct: tyrosine 120 had been mutated to alanine (Y120A-SSB-2ΔSB; a.a.12-224); GST (N, cleaved yes); made in house; host or cells: E. coli (bacterially expressed)
T2 sequence (O88838 12-224 Y120A): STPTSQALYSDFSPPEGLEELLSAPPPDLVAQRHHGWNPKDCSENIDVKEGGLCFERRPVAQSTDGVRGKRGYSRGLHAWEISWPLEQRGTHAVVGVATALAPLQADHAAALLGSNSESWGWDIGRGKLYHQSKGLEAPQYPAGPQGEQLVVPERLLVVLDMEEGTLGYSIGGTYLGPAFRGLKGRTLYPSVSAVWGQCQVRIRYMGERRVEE
Procedure: Wild-type and mutant iNOS peptides (Table 2), corresponding to Lys19-Thr31 of mouse iNOS, were synthesized by GL Biochem (Shanghai) Ltd. These peptides were N-terminal acetylated and C-terminal amidated. All ITC measurements were carried out at 25° C. using a Microcal omega VP-ITC (Microcal Inc., Northampton, Mass.). SSB-2ΔSB was dialysed against buffer (100 mM TrisHCl, 150 mM NaCl, pH 8.0), and wild-type and mutant iNOS N-terminal peptides were prepared in the same buffer from 5 mM stocks. Solutions of 5 to 10 μM SSB-2ΔSB in the cell were titrated by injection of a total of 290 μL of 50-200 μM of iNOS peptides. Data analysis was performed using the evaluation software, MicroCal Origin version 5.0. All curves were fitted using the nonlinear least-squares fitter and the “One Set of Sites” model.
Additional conserved residues flanking the DINNN (SEQ ID NO:36) sequence (Lys22, Val28 and Lys30) also contribute to the interaction, as alanine substitutions of these residues had 2- to 4-fold lower SSB-2 binding affinities than the wild-type peptide. […] Mutation of Glu21 had no effect on SSB-2:iNOS peptide binding. […] Binding of an SSB-2-SPRY domain in which tyrosine 120 had. been mutated to alanine (Y120A-SSB-2ΔSB) was assessed by ITC. The iNOS peptide bound Y120A-SSB-2ΔSB with ˜5000-fold reduced affinity, evidence that Tyr120 in SSB-2 is critical for binding to the iNOS peptide (Table 2).

[1] = biological target: T3, SSB-2/elongin BC complex ubiquitination of iNOS (Mus musculus, UniProt O88838); assay: Cell-free ubiquitination assay of iNOS; format: biochemical; conditions: excess free iNOS peptide; 10 and 40 min incubation
T3 sequence (O88838 1-264): T1 sequence (O88838 1-264)
Procedure: Ubiquitination assays were performed in 20 μl in 20 mM Tris-HCl, 50 mM NaCl, 5 mM MgCl2, 2.5 mM ATP, 0.1 mM DTT. Reactions were stopped by the addition of 2×SDS PAGE loading buffer and heating at 95° C. for 5 min. Reactions contained 0.1 μM E1, 2.5 μM E2, 2.5 μM E3, 50 μM ubiquitin and 5 μM SSB-2/elonginBC and were incubated for 30 minutes or as indicated at 37° C. Cell lysate was added as substrate. Results were visualised by Western Blot using anti iNOS monoclonal antibody following SDS-PAGE.
SOCS box proteins recruit an E3 ubiquitin ligase complex which in the presence of E1 and […] enzymes polyubiquitinates interacting proteins, targeting them for proteasomal degradation. […] LPS/IFNγ stimulated macrophage lysates were used as a source of iNOS and incubated with ubiquitin and a trimeric SSB-2/elongin BC complex, in the presence of E1 and E2 enzymes, Rbx 1 and Cullin5. The reaction mixtures were then analysed by SDS-PAGE and Western blot with anti-iNOS antibodies. Enhanced. polyubiquitination of iNOS, as evidenced by higher molecular weight smearing, was observed after 10 and 40 min incubation in the presence of the SSB2/elongin BC complex.

Ac-KEEKDINNNVKKT-NH2 [I, Ac-KEEKDINNNVKKT-NH2]
inhibition of SSB-2 interaction with iNOS (iNOS/SSB-2 interaction; 100 nM iNOS peptide): modestly inhibited | inhibition of SSB-2 interaction with iNOS (iNOS/SSB-2 interaction; 1000 nM peptide): completely inhibited | fold reduced affinity for Y120A-SSB-2ΔSB (Y120A-SSB-2ΔSB): ~5000 fold | inhibition of polyubiquitination of iNOS [1]: completely inhibited
